Data reported in ChEMBL document CHEMBL5512611, “Discovery of matrix metalloproteinase inhibitors as anti-skin photoaging agents” (Eur J Med Chem, 2024).
pIC50: −log10 of the molar value. One block for each molecule: values may come before it.

Legend:
[1] = target: T1, 72 kDa type IV collagenase (Homo sapiens, UniProt P08253); assay: Inhibition of recombinant MMP-2 (unknown origin)
Stromelysin-2 = Stromelysin-2 (Homo sapiens, UniProt P09238); assay: Inhibition of MMP-10 (unknown origin) using 5-FAM-Pro-Leu-OH as substrate by fluorimetric assay
Stromelysin-2, sequence (P09238 whole entry): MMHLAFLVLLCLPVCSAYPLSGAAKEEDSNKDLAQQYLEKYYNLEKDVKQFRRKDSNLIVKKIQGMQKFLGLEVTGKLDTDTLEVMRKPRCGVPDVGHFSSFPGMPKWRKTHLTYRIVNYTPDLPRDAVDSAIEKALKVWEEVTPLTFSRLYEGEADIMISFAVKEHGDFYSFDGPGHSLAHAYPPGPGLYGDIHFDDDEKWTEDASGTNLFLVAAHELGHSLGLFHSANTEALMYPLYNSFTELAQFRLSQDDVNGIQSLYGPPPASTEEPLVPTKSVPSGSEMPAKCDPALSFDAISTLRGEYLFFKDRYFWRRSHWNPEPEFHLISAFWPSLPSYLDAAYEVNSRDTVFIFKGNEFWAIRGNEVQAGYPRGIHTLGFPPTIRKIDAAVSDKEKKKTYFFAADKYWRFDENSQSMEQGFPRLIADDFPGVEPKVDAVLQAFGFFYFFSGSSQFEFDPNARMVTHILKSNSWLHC

[2] = target: Matrix metalloproteinase-9 (Homo sapiens, UniProt P14780); assay: Inhibition of human MMP-9 using 7-methoxycoumarin-4-yl)acetyl-Pro-Leu-Gly-Leu-(N3-(2,4-dinitrophenyl)-L-2,3-diaminopropionyl)-Ala-Arg-NH2 as substrate preincubated for 5 mins followed by enzyme addition and measured after 15 mins by fluorescence based analysis
Matrix metalloproteinase-9, sequence (P14780 whole entry): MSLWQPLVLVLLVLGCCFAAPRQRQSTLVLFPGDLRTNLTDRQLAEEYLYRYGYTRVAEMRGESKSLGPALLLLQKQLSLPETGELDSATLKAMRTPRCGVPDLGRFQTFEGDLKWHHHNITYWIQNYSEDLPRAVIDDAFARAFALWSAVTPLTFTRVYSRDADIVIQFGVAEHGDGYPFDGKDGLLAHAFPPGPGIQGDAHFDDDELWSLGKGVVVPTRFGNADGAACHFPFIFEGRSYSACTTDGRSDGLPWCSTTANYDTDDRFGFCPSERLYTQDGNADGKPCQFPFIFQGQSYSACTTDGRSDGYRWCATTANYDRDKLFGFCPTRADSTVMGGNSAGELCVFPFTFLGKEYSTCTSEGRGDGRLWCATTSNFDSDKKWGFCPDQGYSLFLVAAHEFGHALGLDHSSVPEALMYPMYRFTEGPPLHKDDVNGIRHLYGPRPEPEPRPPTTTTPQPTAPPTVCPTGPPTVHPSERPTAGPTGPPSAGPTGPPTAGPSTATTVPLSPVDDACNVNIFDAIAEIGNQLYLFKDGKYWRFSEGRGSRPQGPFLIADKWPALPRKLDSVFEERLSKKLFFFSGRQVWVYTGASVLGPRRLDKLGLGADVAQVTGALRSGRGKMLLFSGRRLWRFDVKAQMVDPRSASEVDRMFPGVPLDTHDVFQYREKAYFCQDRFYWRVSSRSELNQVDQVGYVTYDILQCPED

[3] = target: Macrophage metalloelastase (Homo sapiens, UniProt P39900); assay: Inhibition of human MMP-12 using 7-methoxycoumarin-4-yl)acetyl-Pro-Leu-Gly-Leu-(N3-(2,4-dinitrophenyl)-L-2,3-diaminopropionyl)-Ala-Arg-NH2 as substrate preincubated for 5 mins followed by enzyme addition and measured after 15 mins by fluorescence based analysis
Macrophage metalloelastase, sequence (P39900 whole entry): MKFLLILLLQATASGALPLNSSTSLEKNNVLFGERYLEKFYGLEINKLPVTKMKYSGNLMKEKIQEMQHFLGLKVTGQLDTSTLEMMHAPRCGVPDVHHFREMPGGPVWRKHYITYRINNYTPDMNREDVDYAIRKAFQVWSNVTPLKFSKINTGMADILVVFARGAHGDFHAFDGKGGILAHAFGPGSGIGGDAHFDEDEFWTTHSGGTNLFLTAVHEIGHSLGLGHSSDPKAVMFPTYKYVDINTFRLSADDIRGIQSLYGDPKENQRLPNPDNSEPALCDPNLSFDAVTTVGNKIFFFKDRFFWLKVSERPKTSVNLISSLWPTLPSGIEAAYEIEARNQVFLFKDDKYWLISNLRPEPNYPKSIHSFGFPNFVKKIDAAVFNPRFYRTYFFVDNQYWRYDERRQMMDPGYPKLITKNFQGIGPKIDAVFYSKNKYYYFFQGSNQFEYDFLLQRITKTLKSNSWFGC

[4] = target: T1, 72 kDa type IV collagenase; assay: Inhibition of human MMP-2 using 7-methoxycoumarin-4-yl)acetyl-Pro-Leu-Gly-Leu-(N3-(2,4-dinitrophenyl)-L-2,3-diaminopropionyl)-Ala-Arg-NH2 as substrate preincubated for 5 mins followed by enzyme addition and measured after 15 mins by fluorescence based analysis
[5] = Inhibition of UV light -induced MMP-1 expression in HDF-N cells at 1 ppm by ELISA relative to control; format: functional; settings: Homo sapiens
[6] = Inhibition of UV light-induced MMP-1 expression in HDF-N cells at 5 ppm by ELISA relative to control; format: functional; settings: Homo sapiens
[7] = Inhibition of UV light-induced MMP-1 expression in HDF-N cells at 10 ppm by ELISA relative to control; format: functional; settings: Homo sapiens
Interstitial collagenase = target: T2, Interstitial collagenase (Homo sapiens, UniProt P03956); assay: Inhibition of MMP-1 (unknown origin)
T2 sequence (P03956 whole entry): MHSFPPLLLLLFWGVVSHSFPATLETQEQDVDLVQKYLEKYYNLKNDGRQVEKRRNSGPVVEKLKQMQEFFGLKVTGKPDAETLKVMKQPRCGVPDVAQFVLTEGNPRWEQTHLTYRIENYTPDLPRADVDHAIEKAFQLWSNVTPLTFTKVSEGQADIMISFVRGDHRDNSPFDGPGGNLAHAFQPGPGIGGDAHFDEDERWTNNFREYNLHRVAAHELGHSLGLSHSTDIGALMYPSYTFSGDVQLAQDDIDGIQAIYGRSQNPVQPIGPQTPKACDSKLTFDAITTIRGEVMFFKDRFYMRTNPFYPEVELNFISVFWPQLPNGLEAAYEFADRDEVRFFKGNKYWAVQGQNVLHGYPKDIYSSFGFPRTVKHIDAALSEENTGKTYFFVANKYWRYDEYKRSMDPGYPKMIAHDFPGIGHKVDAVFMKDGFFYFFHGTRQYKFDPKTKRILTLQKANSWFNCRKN

[8] = Inhibition of MMP-1 mRNA expression in UVB-irradiated human Hs68 cells at 10 uM relative to control; format: functional; settings: Hs68, light or radiation study
[9] = Inhibition of MMP-2 mRNA expression in UVB-irradiated human Hs68 cells at 10 uM relative to control; format: functional; settings: Hs68, light or radiation study
[10] = Downregulation of UVB irradiation-induced MMP-1 expression in HDF cells at 20 uM measured after 24 hrs by Western blot analysis relative to control; format: functional, Homo sapiens, NHDF
[11] = Downregulation of UVB irradiation-induced MMP-3 expression in HDF cells at 20 uM measured after 24 hrs by Western blot analysis relative to control; format: functional, Homo sapiens, NHDF
[12] = Cytotoxicity against human CCD-986Sk cells assessed as cell viability by MTT assay relative to control; format: toxicity, cell-based; settings: read-out: Activity
[13] = Inhibition of UVB-induced MMP-9 expression in SKH-1 hairless mouse skin at 1 nM administered topically for 1 hr followed by UVB irradiation for 15 weeks by densitometry based gelatin zymography analysis relative to control; format: functional; settings: SKH-1, Skin of body, light or radiation study, topical, time 2521 hrs
[14] = Inhibition of UVB-induced MMP-9 expression in SKH-1 hairless mouse skin at 5 nM administered topically for 1 hr followed by UVB irradiation for 15 weeks by densitometry based gelatin zymography analysis relative to control; format: functional; settings: SKH-1, Skin of body, light or radiation study, topical, time 2521 hrs

T1 sequence (P08253 whole entry): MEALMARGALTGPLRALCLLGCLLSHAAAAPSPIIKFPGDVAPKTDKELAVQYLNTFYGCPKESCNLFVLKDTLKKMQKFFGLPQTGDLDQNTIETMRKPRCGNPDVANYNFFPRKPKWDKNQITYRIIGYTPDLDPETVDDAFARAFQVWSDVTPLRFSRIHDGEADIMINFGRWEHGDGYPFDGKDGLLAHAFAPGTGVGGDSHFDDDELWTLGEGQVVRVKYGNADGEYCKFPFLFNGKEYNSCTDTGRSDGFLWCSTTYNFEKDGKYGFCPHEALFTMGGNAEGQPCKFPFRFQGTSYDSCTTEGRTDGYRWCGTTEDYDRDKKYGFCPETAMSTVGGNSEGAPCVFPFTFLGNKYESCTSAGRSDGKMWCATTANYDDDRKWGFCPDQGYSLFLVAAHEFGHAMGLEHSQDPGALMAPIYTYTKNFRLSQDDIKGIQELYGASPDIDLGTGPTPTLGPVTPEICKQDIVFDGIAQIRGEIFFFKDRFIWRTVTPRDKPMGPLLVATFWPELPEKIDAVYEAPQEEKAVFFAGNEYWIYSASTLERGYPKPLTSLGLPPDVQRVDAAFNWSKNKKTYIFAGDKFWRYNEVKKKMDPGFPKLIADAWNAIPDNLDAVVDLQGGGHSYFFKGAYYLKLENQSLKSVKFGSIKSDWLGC

pIC50 [1]: 7.15
Structure (SMILES): COc1ccc(S(=O)(=O)N(CC(=O)NO)CC(C)C)cc1

pIC50 (Stromelysin-2): 7.62
Structure (SMILES): CC(=O)N1C2NC(C)=CC(=O)N2C(c2ccc(Br)cc2)N1C(C)=O (configuration not stated)

pIC50 [2]: 9.10
pIC50 [3]: 8.46
pIC50 [4]: 9.19
Structure (SMILES): C[C@H](C[C@H](CO)NC(=O)c1ccc(Oc2ccccc2)cc1)C(=O)NO

pIC50 (Stromelysin-2): 7.28
Structure (SMILES): COc1ccc(/C=N/Nc2nc(C)cc(=O)[nH]2)cc1

pIC50 (Stromelysin-2): 5.79
Structure (SMILES): CC(=O)N1c2nc(=O)cc(C)n2C(c2ccc(Br)cc2)N1C(C)=O (configuration not stated)

pIC50 [2]: 8.55
pIC50 [3]: 8.59
pIC50 [4]: 8.96
Structure (SMILES): C[C@H](C[C@H](COC(=O)CCC(=O)O)NC(=O)c1ccc(Oc2ccccc2)cc1)C(=O)NO

Continued, molecule first:

Structure (SMILES): O=C1c2cc(O)cc(O)c2CN1c1ccc(O)cc1
inhibition at 1 µg/mL [5]: 33.9%
inhibition at 5 µg/mL [6]: 27.6%
inhibition at 10 µg/mL [7]: 27.5%

Structure (SMILES): O=C1OC[C@H]2OC(O)[C@@H]3OC(=O)c4cc(O)c(O)c(O)c4-c4c(cc(O)c(O)c4O)C(=O)O[C@@H]3[C@@H]2OC(=O)c2cc(O)c(O)c(O)c2-c2c1cc(O)c(O)c2O (some centres not stated)
pIC50 (Interstitial collagenase): 5.01

Structure (SMILES): COc1cc2ccnc3c2c(c1OC)NC=C3 [AAPTAMINE]
inhibition at 10 µM [8]: 53.6%
inhibition at 10 µM [9]: 87.4%

Structure (SMILES): Oc1ccc2c(c1)OC[C@]1(O)Cc3cc(O)c(O)cc3[C@H]21 [BRAZILIN]
Activity [10]: 50%
Activity [11]: 50%

Structure (SMILES): O=C(O[C@@H]1Cc2c(O)cc(O)cc2O[C@@H]1c1cc(O)c(O)c(O)c1)c1cc(O)c(O)c(O)c1 [EPIGALOCATECHIN GALLATE]
pIC50 (Interstitial collagenase): 5.10

Structure (SMILES): COc1cc(/C=C/C(=O)O)ccc1O [FERULATE]
viability [12]: > 80%

Structure (SMILES): O=c1c(O)c(-c2cc(O)c(O)c(O)c2)oc2cc(O)cc(O)c12 [MYRICETIN]
inhibition in vivo at 0.001 µM [13]: 55%
inhibition in vivo at 0.005 µM [14]: 80%
